How the values were obtained:
barnyardgrass = test: Test A pre-/postemergence herbicide test; format: in vivo, Echinochloa crus-galli
Method in brief: (§1)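 Formulated compound (non-phytotoxic solvent, surfactant) sprayed pre- onto soil of seeded loam/sand pots or post- onto seedlings at 1–2 leaves; ~10 d greenhouse; 0–100 visual control rating versus untreated.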

kochia = test: Test A pre-/postemergence herbicide test; format: in vivo, Kochia scoparia; conditions: for Plant response rating, Kochia: 0 to 100 scale
Description: (§2) Seeds of plant species selected from bamyardgrass (Echinochloa crus-galli), kochia (Kochia scoparia), ragweed (common ragweed, Ambrosia elatior), ryegrass, Italian (Italian ryegrass, Lolium multiflorum), crabgrass, large (large crabgrass Digitaria sanguinalis), giant foxtail (Setaria faberii), morningglory (Ipomoea spp.), pigweed (Amaranthus retroflexus), velvetleaf (Abutilon theophrasti), wheat (Triticum aestivum), and corn (Zea mays) were planted into a blend of loam soil and sand and treated preemergence with a directed soil spray using test chemicals formulated in a non-phytotoxic solvent mixture which included a surfactant. At the same time, plants selected from these crop and weed species and also blackgrass (Alopecurus myosuroides), and galium (catchweed bedstraw, Galium aparine) were planted in pots containing the same blend of loam soil and sand and treated with postemergence applications of test chemicals formulated in the same manner. Plants ranged in height from 2 to 10 cm and were in the one- to two-leaf stage for the postemergence treatment. Treated plants and untreated controls were maintained in a greenhouse for approximately 10 days, after which time all treated plants were compared to untreated controls and visually evaluated for injury. Plant response ratings, summarized in Table A, are based on a 0 to 100 scale where 0 is no effect and 100 is complete control. A dash (-) response means no test result.

ragweed = test: Test A pre-/postemergence herbicide test; format: in vivo, Ambrosia elatior; conditions: for Plant response rating, Ragweed: 0 to 100 scale
Description: as §2

ryegrass, Italian = test: Test A pre-/postemergence herbicide test; format: in vivo, Lolium multiflorum; conditions: for Plant response rating, Ryegrass, Italian: 0 to 100 scale
Description: as §2

giant foxtail = test: Test A pre-/postemergence herbicide test; format: in vivo, Setaria faberii
Description: as §2

pigweed = test: Test A pre-/postemergence herbicide test; format: in vivo, Amaranthus retroflexus
Method in brief: as §1

wheat = test: Test A pre-/postemergence herbicide test; format: in vivo, Triticum aestivum
Description: as §2

corn = test: Test A pre-/postemergence herbicide test; format: in vivo, Zea mays
Method in brief: as §1

blackgrass = test: Test A postemergence herbicide test; format: in vivo, Alopecurus myosuroides
Description: (§3) At the same time, plants selected from these crop and weed species and also blackgrass (Alopecurus myosuroides), and galium (catchweed bedstraw, Galium aparine) were planted in pots containing the same blend of loam soil and sand and treated with postemergence applications of test chemicals formulated in the same manner. Plants ranged in height from 2 to 10 cm and were in the one- to two-leaf stage for the postemergence treatment. Treated plants and untreated controls were maintained in a greenhouse for approximately 10 days, after which time all treated plants were compared to untreated controls and visually evaluated for injury. Plant response ratings, summarized in Table A, are based on a 0 to 100 scale where 0 is no effect and 100 is complete control. A dash (-) response means no test result.

galium = test: Test A postemergence herbicide test; format: in vivo, Galium aparine
Description: as §3

crabgrass, large = test: Test A pre-/postemergence herbicide test; format: in vivo, Digitaria sanguinalis
Method in brief: as §1

morningglory = test: Test A pre-/postemergence herbicide test; format: in vivo, Ipomoea spp.
Description: as §2

velvetleaf = test: Test A pre-/postemergence herbicide test; format: in vivo, Abutilon theophrasti
Method in brief: as §1

[1] = 125 g ai/ha, visual rating, 0 to 100 scale, 0 no effect, 100 complete control, approximately 10 days, preemergence
[2] = Postemergence, 125 g ai/ha, 0 to 100 scale, 0 is no effect, 100 is complete control
[3] = preemergence, 500 g ai/ha, 0 to 100 scale, 0 is no effect and 100 is complete control
[4] = 125 g ai/ha, visual rating, 0 no effect, 100 complete control, approximately 10 days, preemergence
[5] = Postemergence, 125 g ai/ha, 0 is no effect, 100 is complete control
[6] = preemergence, 500 g ai/ha, 0 is no effect and 100 is complete control
[7] = 125 g ai/ha, 0 to 100 scale, 0 is no effect, 100 is complete control
[8] = Postemergence, 125 g ai/ha, 0 to 100 scale, 0 no effect, 100 complete control
[9] = Postemergence, 500 g ai/ha, 0 to 100 scale (0 no effect, 100 complete control)
[10] = Preemergence, 125 g ai/ha, visual rating on 0 to 100 scale (0 no effect, 100 complete control)
[11] = preemergence, 500 g ai/ha, 0 to 100 scale (0 no effect, 100 complete control)
[12] = preemergence, 500 g ai/ha, 0 to 100 scale
[13] = Postemergence, 1000 g ai/ha, 0 to 100 scale (0 no effect, 100 complete control)
[14] = preemergence, 1000 g ai/ha, 0 to 100 scale
[15] = Preemergence, 1000 g ai/ha, visual rating on 0 to 100 scale (0 no effect, 100 complete control), approx. 10 days

## Cc1cccc(NC(=O)C2C(=O)NCC2c2cccc(C(F)(F)F)c2)c1F (racemic) [Compound 184]
barnyardgrass; [1]
  Plant response rating, Barnyardgrass: 70
barnyardgrass; [2]
  Plant response rating, Barnyardgrass: 70
barnyardgrass; Postemergence, 500 g ai/ha
  Barnyardgrass plant response rating (0 to 100 scale, 0 is no effect, 100 is complete control): 80
barnyardgrass; [3]
  Plant response rating, Barnyardgrass: 90
kochia; [4]
  Plant response rating, Kochia: 0
kochia; [5]
  Plant response rating, Kochia: 0
kochia; Postemergence, 500 g ai/ha
  Kochia plant response rating (0 to 100 scale, 0 is no effect, 100 is complete control): 0
kochia; [6]
  Plant response rating, Kochia: 20
ragweed; [4]
  Plant response rating, Ragweed: 0
ragweed; [5]
  Plant response rating, Ragweed: 0
ragweed; Postemergence, 500 g ai/ha
  Ragweed plant response rating (0 to 100 scale, 0 is no effect, 100 is complete control): 0
ragweed; [6]
  Plant response rating, Ragweed: 0
ryegrass, Italian; [4]
  Plant response rating, Ryegrass, Italian: 0
ryegrass, Italian; [5]
  Plant response rating, Ryegrass, Italian: 0
ryegrass, Italian; Postemergence, 500 g ai/ha
  Ryegrass, Italian plant response rating (0 to 100 scale, 0 is no effect, 100 is complete control): 20
ryegrass, Italian; [6]
  Plant response rating, Ryegrass, Italian: 0
Giant foxtail; [1]
  Plant response rating, Foxtail, Giant: 90
Giant foxtail; [2]
  Plant response rating, Foxtail, Giant: 70
Giant foxtail; Postemergence, 500 g ai/ha
  Foxtail, Giant plant response rating (0 to 100 scale, 0 is no effect, 100 is complete control): 80
Giant foxtail; [3]
  Plant response rating, Foxtail, Giant: 90
pigweed; [1]
  Plant response rating, Pigweed: 0
pigweed; [2]
  Plant response rating, Pigweed: 0
pigweed; Postemergence, 500 g ai/ha
  Pigweed plant response rating (0 to 100 scale, 0 is no effect, 100 is complete control): 0
pigweed; [3]
  Plant response rating, Pigweed: 0
wheat; [2]
  Plant response rating, Wheat: 0
wheat; Postemergence, 500 g ai/ha
  Wheat plant response rating (0 to 100 scale, 0 is no effect, 100 is complete control): 40
corn; [2]
  Plant response rating, Corn: 0
corn; Postemergence, 500 g ai/ha
  Corn plant response rating (0 to 100 scale, 0 is no effect, 100 is complete control): 20
blackgrass; [7]
  Plant response rating, Blackgrass: 0
blackgrass; 500 g ai/ha
  Blackgrass plant response rating (0 to 100 scale, 0 is no effect, 100 is complete control): 20
galium; [7]
  Plant response rating, Galium: 0
galium; 500 g ai/ha
  Galium plant response rating (0 to 100 scale, 0 is no effect, 100 is complete control): 20

## O=C1NCC(c2cc(Cl)cc(Cl)c2)C1C(=O)Nc1ccccc1F (racemic) [Compounds 90]
barnyardgrass; [8]
  Plant response rating, Barnyardgrass: 30
barnyardgrass; [9]
  Plant response rating, Barnyardgrass: 70
barnyardgrass; [10]
  Barnyardgrass plant response rating: 30
barnyardgrass; [11]
  Plant response rating, Barnyardgrass: 70
crabgrass, large; [8]
  Plant response rating, Crabgrass, Large: 50
crabgrass, large; [9]
  Plant response rating, Crabgrass, Large: 70
crabgrass, large; [10]
  Crabgrass, Large plant response rating: 70
crabgrass, large; [12]
  Plant response rating, Crabgrass, Large: 80
Giant foxtail; [8]
  Plant response rating, Foxtail, Giant: 40
Giant foxtail; [9]
  Plant response rating, Foxtail, Giant: 70
Giant foxtail; [10]
  Foxtail, Giant plant response rating: 60
Giant foxtail; [12]
  Plant response rating, Foxtail, Giant: 70
morningglory; [8]
  Plant response rating, Morningglory: 0
morningglory; [9]
  Plant response rating, Morningglory: 0
morningglory; [10]
  Morningglory plant response rating: 0
morningglory; [12]
  Plant response rating, Morningglory: 0
pigweed; [8]
  Plant response rating, Pigweed: 0
pigweed; [9]
  Plant response rating, Pigweed: 20
pigweed; [10]
  Pigweed plant response rating: 0
pigweed; [12]
  Plant response rating, Pigweed: 0
velvetleaf; [8]
  Plant response rating, Velvetleaf: 0
velvetleaf; [9]
  Plant response rating, Velvetleaf: 0
velvetleaf; [10]
  Velvetleaf plant response rating: 0
velvetleaf; [12]
  Plant response rating, Velvetleaf: 0
wheat; [8]
  Plant response rating, Wheat: 0
wheat; [9]
  Plant response rating, Wheat: 0
wheat; [10]
  Wheat plant response rating: 0
wheat; [12]
  Plant response rating, Wheat: 0
corn; [8]
  Plant response rating, Corn: 0
corn; [9]
  Plant response rating, Corn: 30
corn; [10]
  Corn plant response rating: 0
corn; [12]
  Plant response rating, Corn: 0

## O=C1NCC(c2ccccc2Cl)C1C(=O)Nc1ccccc1F (racemic) [Compound 88]
barnyardgrass; [8]
  Plant response rating, Barnyardgrass: 0
barnyardgrass; [9]
  Plant response rating, Barnyardgrass: 40
barnyardgrass; [10]
  Barnyardgrass plant response rating: 0
barnyardgrass; [11]
  Plant response rating, Barnyardgrass: 50
crabgrass, large; [8]
  Plant response rating, Crabgrass, Large: 0
crabgrass, large; [9]
  Plant response rating, Crabgrass, Large: 60
crabgrass, large; [10]
  Crabgrass, Large plant response rating: 40
crabgrass, large; [12]
  Plant response rating, Crabgrass, Large: 80
Giant foxtail; [8]
  Plant response rating, Foxtail, Giant: 0
Giant foxtail; [9]
  Plant response rating, Foxtail, Giant: 0
Giant foxtail; [10]
  Foxtail, Giant plant response rating: 0
Giant foxtail; [12]
  Plant response rating, Foxtail, Giant: 30
morningglory; [8]
  Plant response rating, Morningglory: 0
morningglory; [9]
  Plant response rating, Morningglory: 0
morningglory; [10]
  Morningglory plant response rating: 0
morningglory; [12]
  Plant response rating, Morningglory: 0
pigweed; [8]
  Plant response rating, Pigweed: 0
pigweed; [9]
  Plant response rating, Pigweed: 0
pigweed; [10]
  Pigweed plant response rating: 0
pigweed; [12]
  Plant response rating, Pigweed: 30
velvetleaf; [8]
  Plant response rating, Velvetleaf: 0
velvetleaf; [9]
  Plant response rating, Velvetleaf: 0
velvetleaf; [10]
  Velvetleaf plant response rating: 0
velvetleaf; [12]
  Plant response rating, Velvetleaf: 0
wheat; [8]
  Plant response rating, Wheat: 0
wheat; [9]
  Plant response rating, Wheat: 0
wheat; [10]
  Wheat plant response rating: 0
wheat; [12]
  Plant response rating, Wheat: 0
corn; [8]
  Plant response rating, Corn: 0
corn; [9]
  Plant response rating, Corn: 0
corn; [10]
  Corn plant response rating: 0
corn; [12]
  Plant response rating, Corn: 0

## C#CCN(C(=O)C1C(=O)NCC1c1ccc(F)c(F)c1)c1ccccc1[N+](=O)[O-] (centres unmarked) [Compound 265]
barnyardgrass; [13]
  Plant response rating, Barnyardgrass: 0
barnyardgrass; preemergence, 1000 g ai/ha, 0 to 100 scale (0 no effect, 100 complete control)
  Plant response rating, Barnyardgrass: 0
crabgrass, large; [13]
  Plant response rating, Crabgrass, Large: 0
crabgrass, large; [14]
  Plant response rating, Crabgrass, Large: 0
Giant foxtail; [13]
  Plant response rating, Foxtail, Giant: 0
Giant foxtail; [14]
  Plant response rating, Foxtail, Giant: 0
morningglory; [13]
  Plant response rating, Morningglory: 0
morningglory; [14]
  Plant response rating, Morningglory: 0
pigweed; [13]
  Plant response rating, Pigweed: 0
pigweed; [14]
  Plant response rating, Pigweed: 0
velvetleaf; [13]
  Plant response rating, Velvetleaf: 0
velvetleaf; [14]
  Plant response rating, Velvetleaf: 0
wheat; [13]
  Plant response rating, Wheat: 0
wheat; [14]
  Plant response rating, Wheat: 0
corn; [13]
  Plant response rating, Corn: 0
corn; [14]
  Plant response rating, Corn: 0

## CN(C(=O)C1C(=O)NCC1c1ccc(F)c(F)c1)c1ccccc1F (centres unmarked) [Compound 24]
barnyardgrass; [13]
  Plant response rating, Barnyardgrass: 0
barnyardgrass; [15]
  Plant response rating, Barnyardgrass: 0
crabgrass, large; [13]
  Plant response rating, Crabgrass, Large: 30
crabgrass, large; [15]
  Plant response rating, Crabgrass, Large: 70
Giant foxtail; [13]
  Plant response rating, Foxtail, Giant: 0
Giant foxtail; [15]
  Plant response rating, Foxtail, Giant: 40
morningglory; [13]
  Plant response rating, Morningglory: 0
morningglory; [15]
  Plant response rating, Morningglory: 0
pigweed; [13]
  Plant response rating, Pigweed: 0
pigweed; [15]
  Plant response rating, Pigweed: 0
velvetleaf; [13]
  Plant response rating, Velvetleaf: 0
velvetleaf; [15]
  Plant response rating, Velvetleaf: 60
wheat; [13]
  Plant response rating, Wheat: 0
wheat; [15]
  Plant response rating, Wheat: 0
corn; [13]
  Plant response rating, Corn: 0
corn; [15]
  Plant response rating, Corn: 0

From US10294202B2, “Pyrrolidinones as herbicides” (FMC Corporation, priority 2013, dated 2019)
